“And” between values parts separate entries of the source, which are not always exact repeats. Equal entries are not always repeated.
What was measured:
[1] = tested on: 6-OHDA lesion of the SNpc; experiment: Parkinson's disease in vivo: 6-OHDA model; design: species or system mouse; details: 6-OHDA lesioned mice, dose not given; for Behaviour (Rotation) % SSV: SSV = 0%
Protocol: Parkinson's Disease In Vivo Technique: 6-OHDA Model
Preparation of the toxin 6-OHDA (1.65 mg/mL, Sigma Cat# H-4381):
6-OHDA toxin is dissolved in ascorbic acid solution (0.2 mg/mL in dH2O), store in dark on ice. To increase the speed of anaesthesia and reduce stress to the mouse, there is premedication with atropine (0.5 mg/kg) and xylazine (10 mg/kg) is injected subcutaneously via a 27 gauge needle).
To Prepare the Lesion Needle to Inject 6-OHDA:
PBS is sucked up into the line (ensure no air bubbles) with up to […] in a Hamilton syringe. Syringe is placed the in the Kd Scientific syringe pump and secured. Pump is turned the on and syringe is loaded into the pump. Pump volume is set at […] and the rate is set at 0.5 ml/min. The lesion needle is positioned so that the bevelled (eye) of the needle is at a 45° angle from the midline and tightened to secure the needle. Pump is run and checked for fluid coming out.
3-4% isoflurane is carried by oxygen to induce anaesthesia and 1-2% for maintenance of anaesthesia. Animal is placed in small induction chamber and subjected to a few minutes of 4% isoflurane in oxygen at a flow rate of approx 1 l/min. Mouse is then placed in stereotaxic frame. The anaesthetic tube is disconnected from induction box and isoflurane reduced to 2% conc and oxygen flow rate to approx […]. Tube is connected to the nose piece attached to stereotaxic frame so that anaesthetic gas can be constantly administered during surgery. LHS ear bar is screwed at approx 3 mm. RHS ear bar is screwed in until there is no sideways head movement (about 5 mm). Front incisors are placed over the mouthguard and put nose-guard on (3 mm below 0). Mouthguard is screwed into place and ensured the top of the mouse's head is level (re-check this once the animal's skull is exposed).
Using a scalpel (size 4, blade 22), the scalp is cut down the centreline of the mouse's head to expose the skull. Typically 10-15 mm. The surface of the skull is dried with a cotton bud. Drill hole is measured with a ruler 3 mm posterior from Bregma and between 1 and 1.5 mm laterally from the centre line. The skull is drilled into this position until the surface of the brain is exposed.
6-OHDA is sucked up to fill approximately 15 cm of the line and the syringe. Fluid is ensured to be coming out of needle. The bevelled of the needle is aligned over the centreline where Bregma crosses, viewed by Motik dissecting microscope. The needle is ensured to be a few mm above the skull before positioning. Frame is moved 2.9 mm in a posterior direction and 1.1 mm (11 small notches) laterally to the right (for RHS injections) from the starting coordinates at Bregma. Needle is moved down until the tip of the needle just touches the surface of the brain.
Needle is lowered to the required depth of 4.6 mm and brain is allowed to settle for 2 min.
[…] of toxin is injected into the RHS SNpc, taking 4 min. 2 min is allowed to ensure the toxin disperses. Needle is withdrawn and antiseptic applied to the wound, with suture or superglue to close.
Mouse is wrapped in a piece of tissue and placed in a warm recovery box (on a heat pad) with water bottles (50 ml tubes) warmed to 50 C. Panadol® syrup is added to mouse's water bottle.
Rotation is recorded by the Computer based Rotacount system—(Columbus Instruments, Columbus, Ohio, USA). The system comprised of 8 bowls with sensors connected to a computer which measures incremental turns (90 degrees and full turns 360 degrees) either clockwise or counter clockwise. The sensors are positioned above the centre of each bowl about 30 cm above each. Tubing and a thin empty plastic pipette are attached so that the sensor is now extended to with a few cm of the base of the bowl.
Mice are placed individually into the eight bowls. Mice are secured to the pipettes via a cable tie and tape. […]

[2] = tested on: MPTP induced cell death in the SN; experiment: Parkinson's disease in vivo: MPTP model; design: species or system mouse; details: MPTP mice
CYP2E1 = CYP2E1 (Homo sapiens, UniProt P05181); details: read-out: Literature IC50 value, CYP2E1; Chlorzoxazone-6-hydroxylation; positive control inhibitor; unit inferred; cited from earlier work
Sequence of CYP2E1 (P05181 whole entry): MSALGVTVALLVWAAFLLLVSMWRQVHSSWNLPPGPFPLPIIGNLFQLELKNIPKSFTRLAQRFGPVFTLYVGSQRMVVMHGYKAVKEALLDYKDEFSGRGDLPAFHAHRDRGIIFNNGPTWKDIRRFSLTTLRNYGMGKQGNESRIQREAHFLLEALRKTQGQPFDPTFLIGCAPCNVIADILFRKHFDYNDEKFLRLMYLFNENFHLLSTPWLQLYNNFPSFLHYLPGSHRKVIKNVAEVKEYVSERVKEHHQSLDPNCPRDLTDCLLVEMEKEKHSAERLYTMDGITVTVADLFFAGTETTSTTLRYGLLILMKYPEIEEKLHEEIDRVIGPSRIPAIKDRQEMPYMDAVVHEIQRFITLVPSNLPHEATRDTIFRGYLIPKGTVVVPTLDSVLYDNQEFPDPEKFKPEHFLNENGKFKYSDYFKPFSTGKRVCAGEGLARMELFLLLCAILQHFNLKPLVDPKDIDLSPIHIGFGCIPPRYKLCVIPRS

Row | Structure (SMILES) | Behaviour (Rotation) % SSV [1] [%] | Behaviour (Rotation) total turns/h ± SD [1] | SN cell counts % of SSV (SSV = 0%) [1] [%] | SN cell counts (cells ± SD) [1] | Behaviour Pole Test, % (SSV = 0%) ([2]; L-DOPA 20 mg/kg) [%] | Behaviour Pole Test, value ± SD ([2]; L-DOPA 20 mg/kg) | SN cell counts % of SSV ([2]; L-DOPA 20 mg/kg) | SN cell counts (cells +/− SD) ([2]; L-DOPA 20 mg/kg) | Behaviour Pole Test, % (SSV = 0%) ([2]; Selegiline 1 mg/kg) [%] | Behaviour Pole Test, value ± SD ([2]; Selegiline 1 mg/kg) | SN cell counts % of SSV ([2]; Selegiline 1 mg/kg) [%] | SN cell counts (cells +/− SD) ([2]; Selegiline 1 mg/kg) | IC50 (CYP2E1) [µM]
1 | N[C@@H](Cc1ccc(O)c(O)c1)C(=O)O [L-DOPA, L-3,4-dihydroxyphenylalanine] | 52.26 | (123.67 ± 80.90) turns/h | 1.73 | (1953.78 ± 280.21) cells | −205.29 | (8.91 ± 5.25) | 10.39% and 4.50% | 1935 ± 296 cells and 2015.91 ± 729.87 cells |  |  |  |  | 
2 | C#CCN(C)[C@H](C)Cc1ccccc1 [Selegiline, reference compound] | 71.13 | (74.80 ± 57.95) turns/h | 0.43 | (1928.89 ± 301.77) cells |  |  |  |  | −198.93 | (8.73 ± 7.95) | 39.2 | (2754.62 ± 461.23) cells | 
3 | N[C@@H]1C[C@H]1c1ccccc1 (racemic) [Tranylcypromine] |  |  |  |  |  |  |  |  |  |  |  |  | 8.94
